These results are taken from patent US20220354811A1, “METHODS AND COMPOSITIONS FOR MODULATING MACROPHAGES POLARIZATION” (INSERM (INSTITUT NATIONAL DE LA SANTÉ ET DE LA RECHERCHE …, priority 2019, published 2022).

In series [1] the test system is human primary monocytes. To be noted: literature (Jacquel et al., Blood 2009, Sci Reports 2018); cited from earlier work.
Series [2] deals with CSF-1-derived human macrophages. The series can be described thus: IL-4-induced M2 polarization of CSF-1-derived macrophages (flow cytometry CD200R/CD206, CD200R/CD163). It is filed as cell-based. How it is done:
FIG. 6. […] Human monocytes were differentiated during 7 days with 100 ng/mL CSF-1. […] The results are expressed as MFI and represent the mean of 3 independent experiments performed in duplicate. **P<0.01 according to a paired student t test (B) Macrophage polarization was evaluated by 3-color flow cytometric analysis. The percentage indicates cells that express both CD206/CD200R or CD163/CD200R. The results represent the mean±SD of 3 independent experiments performed in duplicate. **P<0.01, ***P<0.001 according to a paired student t test. Human monocytes were differentiated during 5 days with 100 ng/mL CSF-1 and then polarized into M2-macrophages (IL-4) for 2 days. […] The results are expressed as percentage of CD200R/CD206 or CD200R/CD163 double positive cells and represent the mean±SD of 3 independent experiments performed in duplicate.
To analyze the macrophagic differentiation of monocytes, the cells were washed with ice-cold phosphate buffered saline (PBS, Life Technologies, 14190169), incubated at 4° C. for 10 min in PBS/bovine serum albumin (BSA 0.5%, Dutscher, 871002) with anti-CD16, anti-CD71 and anti-CD163 or isotype controls (Miltenyi and BD Biosciences, catalog numbers were 130-113-396, 130-097-628 and 551374). Finally, the cells were washed and fixed in 2% paraformaldehyde (EMS, 15710). To perform macrophage polarization, purified monocytes were plated at 0.3×10^6 per mL in RPMI 1640 medium with glutamax-I supplemented with 10% (vol/vol) fetal bovine serum plus CSF-1 for 5+2 days to differentiate into M0 macrophages. 20 ng/mL IL-4 (Miltenyi, 130-094-117) was added after 5 days of differentiation for two days to polarize into M2-macrophages. […] Fluorescence was measured with a MACSQuant® Analyzer (Miltenyi, Paris, France). […] Fluorescence was measured with a MACSQuant® Analyzer (Miltenyi, Paris, France). […] Fluorescence, that indicate the internalization of particles, was measured with a MACSQuant® Analyzers (Miltenyi, France). Trypan blue solution was used to quench the fluorescence from particles that were not internalized. […]
(Flow cytometry measures light scatter and fluorescence of single cells or particles in a stream.)

Series [3] concerns primary human monocytes. Put plainly: Cell death in CSF-1-treated differentiating monocytes (AnnexinV/DAPI flow cytometry). Type of series: cell-based. An excerpt:
FIG. 1. […] (A) Macrophagic differentiation of monocytes from 3 different healthy donors was examined by 3-color flow cytometric analysis. The results are expressed as percentage of CD71/CD163 or CD16/CD163 double positive cells and represent the mean±SD of 3 independent experiments performed in duplicate. (B) Cell death from 3 different healthy donors was examined by flow cytometry analysis. The results are expressed as percentage of AnnexinV/DAPI double positive cells and represent the mean±SD of 3 independent experiments performed in duplicate. n.s. denotes not statistically significant according to a paired student t test. *P<0.05, **P<0.01, ***P<0.001 according to a paired student t test (versus d2).
To analyze the macrophagic differentiation of monocytes, the cells were washed with ice-cold phosphate buffered saline (PBS, Life Technologies, 14190169), incubated at 4° C. for 10 min in PBS/bovine serum albumin (BSA 0.5%, Dutscher, 871002) with anti-CD16, anti-CD71 and anti-CD163 or isotype controls (Miltenyi and BD Biosciences, catalog numbers were 130-113-396, 130-097-628 and 551374). Finally, the cells were washed and fixed in 2% paraformaldehyde (EMS, 15710). To perform macrophage polarization, purified monocytes were plated at 0.3×10^6 per mL in RPMI 1640 medium with glutamax-I supplemented with 10% (vol/vol) fetal bovine serum plus CSF-1 for 5+2 days to differentiate into M0 macrophages. 20 ng/mL IL-4 (Miltenyi, 130-094-117) was added after 5 days of differentiation for two days to polarize into M2-macrophages. To analyze the macrophage polarization, cells were detached using PBS/EDTA/BSA, washed with PBS, and incubated at 4° C. for 10 min in PBS/bovine serum albumin with anti-CD200R (Biolegend, 329308), anti-CD206 (Miltenyi, 130-100-034) and anti-CD163 (Miltenyi, 130-097-628) or isotype controls. Finally, the cells were washed and fixed in 2% paraformaldehyde (EMS, 15710). Fluorescence was measured with a MACSQuant® Analyzer (Miltenyi, Paris, France). To analyze the cell death, cells were washed with ice-cold PBS and incubated at 4° C. for 15 min in a specific buffer (10 mM HEPES, 150 mM NaCl, 5 mM KCl, 1 mM MgCl2, 1 mM CaCl2) with AnnexinV-FITC (Miltenyi, 130-097-928) and DAPI (Sigma-Aldrich, D9542). Fluorescence was measured with a MACSQuant® Analyzer (Miltenyi, Paris, France). To analyze the ability of macrophages to phagocyte bacteria, we used Vybrant® Phagocytosis Assay Kit according manufacture's instruction (ThermoFisher, V-6694). […] Fluorescence, that indicate the internalization of particles, was measured with a MACSQuant® Analyzers (Miltenyi, France). Trypan blue solution was used to quench the fluorescence from particles that were not internalized. […]

The conditions of series [4]: several recent studies (Frenette 2019; Barreyro 2015; Baskin-Bey 2007); cited from earlier work.

In the case of `CC(C)[C@H](NC(=O)c1ccc2ccccc2n1)C(=O)N[C@@H](CC(=O)O)C(=O)COc1c(F)cccc1F` [Q-VD-OPh], the “effect on CSF-1-induced monocyte differentiation” value in series [1] is recorded as “inhibits”.

Take `C[C@H](NC(=O)C(=O)Nc1ccccc1C(C)(C)C)C(=O)N[C@@H](CC(=O)O)C(=O)COc1c(F)c(F)cc(F)c1F` [Emricasan, (S)-3-((S)-2-(2-((2-(tert-Butyl)phenyl)amino)-2-oxoacetamido)propanamido)-4-oxo-5-(2,3,5,6-tetrafluorophenoxy)pentanoic acid]: in series [2] (5 days CSF-1 then IL-4 2 days), the M1-like markers entry is “induced M1-like markers” and the “M2-like polarization of M0 macrophages induced by IL4” value was “dampened”. The “generation of CD200R+/CD206+ and CD200R+/CD163+ double-positive cells” value in series [2] (IL4-polarized macrophages, Emricasan added 16 h before IL-4) is “inhibited”. Besides, the “apoptosis induction in undifferentiated monocytes” value in series [3] is “did not induce apoptosis”. For the same compound, the DAPI staining result in series [3] (higher concentrations (3 μM)) was “slightly increased DAPI staining”. In addition, the “toxicity for primary human monocytes” value in series [3] (low concentrations (up to 2 μM)) is listed as “not toxic”. The “Annexin V staining” value in series [3] (low concentrations, CSF-1, 48 h) was “failed to induced significant loss of Annexin V staining”. The “liver functions in patients suffering liver diseases” value in series [4] was “improve liver functions”.
